Measurements taken from the OligoGym collection.
Values joined by “and” are separate entries in the source; they are usually repeats but may differ in a detail not shown here. Identical values can stand only once. After the bases stand the sugars from the 5' end (letter, count) and the backbone: PS all phosphorothioate, else s phosphorothioate and o phosphodiester by linkage. Methylation of C is not given here. e = 2'-O-(2-methoxyethyl) (MOE); k = constrained ethyl (cEt); d = 2'-deoxy (DNA)

These sequences were tested against MALAT1. Settings: ASO, A431, 0.005 µM.

Row | Sequence | target mRNA inhibition
1 | AGCCAGTCAGGGACAC (sugars k3 d10 k3, PS) | -3%
2 | AGCCTTCGGTGCCTTT (sugars k3 d10 k3, PS) | 5%
3 | AGCGGGATCAGAACAG (sugars k3 d10 k3, PS) | 43%
4 | AGCTACTGGCTGCATC (sugars k3 d10 k3, PS) | 20%
5 | AGCTAGGGAAAAGTGG (sugars k3 d10 k3, PS) | -10%
6 | AGCTTCAACTGGGAAT (sugars k3 d10 k3, PS) | 13%
7 | AGCTTCAATCACAAAT (sugars k3 d10 k3, PS) | 23%
8 | AGGAAGGCTCCATGGT (sugars k3 d10 k3, PS) | 11%
9 | AGGATGTATATAGTTC (sugars k3 d10 k3, PS) | 2%
10 | AGGCAAACGAAACATT (sugars k3 d10 k3, PS) | 35%
11 | AGGCAAATTAATGGCC (sugars k3 d10 k3, PS) | 8%
12 | AGGCTATTACCTGAAA (sugars k3 d10 k3, PS) | -5%
13 | AGGGACGGTTGAGAAG (sugars k3 d10 k3, PS) | 14%
14 | AGGGCTTTACTTTCCA (sugars k3 d10 k3, PS) | -5%
15 | AGGTATAGTTTACCAC (sugars k3 d10 k3, PS) | -7%
16 | AGTAACTACCAGCCAT (sugars k3 d10 k3, PS) | 45%
17 | AGTACGAAACTCCCCC (sugars k3 d10 k3, PS) | 28%
18 | AGTCAGGGACACACCC (sugars k3 d10 k3, PS) | -16%
19 | AGTCCCTGAAGGTGTT (sugars k3 d10 k3, PS) | 28%
20 | AGTCTCGGGCTGCAGG (sugars k3 d10 k3, PS) | 3%
21 | AGTGTGATAGTTCAGG (sugars k3 d10 k3, PS) | 7%
22 | AGTGTTCGCAGACAAA (sugars k3 d10 k3, PS) | 34%
23 | ATAACGAAGAGATACC (sugars k3 d10 k3, PS) | 6%

Row | Sequence | target mRNA inhibition
24 | ATACGACTGCTTAAAA (sugars k3 d10 k3, PS) | 20%
25 | ATACTCTTCCAAGGAT (sugars k3 d10 k3, PS) | 35%
26 | ATACTTCATTACCCCA (sugars k3 d10 k3, PS) | 50%
27 | ATACTTGTCTTAGCTT (sugars k3 d10 k3, PS) | 60% and 75% and 50%
28 | ATAGACGGAGAACAAC (sugars k3 d10 k3, PS) | 21%
29 | ATAGCAGCGGGATCAG (sugars k3 d10 k3, PS) | 57%
30 | ATAGTGTAAAACATTG (sugars k3 d10 k3, PS) | 0%
31 | ATATTTTGCCCCCACC (sugars k3 d10 k3, PS) | 2%
32 | ATCACCGGAATTCGAT (sugars k3 d10 k3, PS) | 17%
33 | ATCACTTTAGAGGCTT (sugars k3 d10 k3, PS) | 53%
34 | ATCATTGGGAGTTACT (sugars k3 d10 k3, PS) | 54%
35 | ATCCTGAAATCCCCTA (sugars k3 d10 k3, PS) | 8%
36 | ATCGCCTTCAAATTAT (sugars k3 d10 k3, PS) | 60% and 76%
37 | ATCTAGGCCATCATAC (sugars k3 d10 k3, PS) | 32%
38 | ATCTCCCACCTGTCTA (sugars k3 d10 k3, PS) | 45%
39 | ATCTGCGGTTTCCTCA (sugars k3 d10 k3, PS) | 58%
40 | ATGCCCACAAGGATCC (sugars k3 d10 k3, PS) | 33%
41 | ATGCTTATTCCCCAAT (sugars k3 d10 k3, PS) | 52%
42 | ATGGAGGTATGACATA (sugars k3 d10 k3, PS) | 20%
43 | ATGGAGGTATGACATATAAT (sugars e5 d10 e5, PS) | 22% and 25%
44 | ATGTACTCAGCTTCAA (sugars k3 d10 k3, PS) | 44%
45 | ATGTTAAGAGAAGCCC (sugars k3 d10 k3, PS) | -17%
46 | ATTAAAGAGTGTTCGC (sugars k3 d10 k3, PS) | 69% and 44%

Row | Sequence | target mRNA inhibition
47 | ATTAATGCACTGGTAC (sugars k3 d10 k3, PS) | 16%
48 | ATTACCCCAACTAAAC (sugars k3 d10 k3, PS) | 9%
49 | ATTACTTCCGTTACGA (sugars k3 d10 k3, PS) | 43%
50 | ATTATATGCTCATCAC (sugars k3 d10 k3, PS) | 51%
51 | ATTATCCTGATATTGG (sugars k3 d10 k3, PS) | 46%
52 | ATTATGGATCATGCCC (sugars k3 d10 k3, PS) | 17%
53 | ATTGGGAGTTACTTGC (sugars k3 d10 k3, PS) | 63% and 85%
54 | ATTTAACTTCCCCCAG (sugars k3 d10 k3, PS) | 18%
55 | ATTTATAGACCCCTGA (sugars k3 d10 k3, PS) | -8%
56 | CAAAACCCCCGGAACT (sugars k3 d10 k3, PS) | 0%
57 | CAAAACGAATTCAGGG (sugars k3 d10 k3, PS) | 26%
58 | CAACACTCAGCCTTTA (sugars k3 d10 k3, PS) | -1%
59 | CAACCGTAACAGGCCA (sugars k3 d10 k3, PS) | 23%
60 | CAACCTCCGTCATGTT (sugars k3 d10 k3, PS) | 35%
61 | CAACTCTTCTGATAAC (sugars k3 d10 k3, PS) | 16%
62 | CAAGAACTAGCACCTG (sugars k3 d10 k3, PS) | 7%
63 | CAAGCTGAACTATCAC (sugars k3 d10 k3, PS) | 27%
64 | CAAGGATCCAAGCTAC (sugars k3 d10 k3, PS) | 19%
65 | CAAGGATGTATATAGT (sugars k3 d10 k3, PS) | 0%
66 | CAAGTAAGCCCCACCC (sugars k3 d10 k3, PS) | 26%
67 | CAATAGTACTATAGCA (sugars k3 d10 k3, PS) | 7%
68 | CAATATTTGCCCCTCC (sugars k3 d10 k3, PS) | 30%
69 | CAATGCATTCTAATAG (sugars k3 d10 k3, PS) | 18%

Row | Sequence | target mRNA inhibition
70 | CAATGGACATCTCTTC (sugars k3 d10 k3, PS) | 49%
71 | CAATTACCTAAACCCA (sugars k3 d10 k3, PS) | 20%
72 | CACAAATACGACTGCT (sugars k3 d10 k3, PS) | 24%
73 | CACAAGGCAAATCGCC (sugars k3 d10 k3, PS) | 20%
74 | CACAATTCTTAATCAG (sugars k3 d10 k3, PS) | 41%
75 | CACAGCGGTACACTCC (sugars k3 d10 k3, PS) | 40%
76 | CACCAAATCGCACTGG (sugars k3 d10 k3, PS) | -7%
77 | CACCGCTTGAGATTTG (sugars k3 d10 k3, PS) | 47% and 30% and 26%
78 | CACGCCAACACAGTTT (sugars k3 d10 k3, PS) | 36%
79 | CACGGAAATTTTTCTA (sugars k3 d10 k3, PS) | 8%
80 | CACTACTCCAAGCATT (sugars k3 d10 k3, PS) | 23%
81 | CACTCATATGCAATTC (sugars k3 d10 k3, PS) | 37%
82 | CACTCTAAGATTGTAA (sugars k3 d10 k3, PS) | 33%
83 | CACTGGATAAGTATTA (sugars k3 d10 k3, PS) | 40%
84 | CACTGTCAATTTATAG (sugars k3 d10 k3, PS) | 19%
85 | CACTTGCCAGTTTAAT (sugars k3 d10 k3, PS) | 29%
86 | CAGAAGTCTCGGGCTG (sugars k3 d10 k3, PS) | 19%
87 | CAGACAAGATTCATGA (sugars k3 d10 k3, PS) | 19%
88 | CAGACCAACCCCCAGT (sugars k3 d10 k3, PS) | -7%
89 | CAGACCTTCTGAACCG (sugars k3 d10 k3, PS) | 10%
90 | CAGCGGGATCAGAACA (sugars k3 d10 k3, PS) | 23%
91 | CAGCTAAGATAGCAGC (sugars k3 d10 k3, PS) | 8%
92 | CAGCTTCAATCACAAA (sugars k3 d10 k3, PS) | 33%

Row | Sequence | target mRNA inhibition
93 | CAGCTTCCGCTAAGAT (sugars k3 d10 k3, PS) | -11%
94 | CAGGAACAAGTCCTAC (sugars k3 d10 k3, PS) | 19%
95 | CAGGCAAATTAATGGC (sugars k3 d10 k3, PS) | 23%
96 | CAGTAGGTATAGTTTA (sugars k3 d10 k3, PS) | -17%
97 | CAGTCCTTTACAGAAG (sugars k3 d10 k3, PS) | 12%
98 | CAGTCTACAAGTTACA (sugars k3 d10 k3, PS) | 27%
99 | CAGTGCTATTTTATCC (sugars k3 d10 k3, PS) | 78% and 70%
100 | CAGTTATATTAGGTTC (sugars k3 d10 k3, PS) | 8%
101 | CAGTTCAATACTTTCC (sugars k3 d10 k3, PS) | 45%
102 | CAGTTGCCGCCAGCCC (sugars k3 d10 k3, PS) | -3%
103 | CATAAACAATGCACTA (sugars k3 d10 k3, PS) | 14%
104 | CATCAAACACTGGTTC (sugars k3 d10 k3, PS) | 14%
105 | CATCAAGGCACTGATC (sugars k3 d10 k3, PS) | 13%
106 | CATCACCAAATTGCAC (sugars k3 d10 k3, PS) | 28%
107 | CATGACCCTACTGAAG (sugars k3 d10 k3, PS) | 2%
108 | CATGCAATACTGCAGA (sugars k3 d10 k3, PS) | 15%
109 | CATGCCAGTTACTCCA (sugars k3 d10 k3, PS) | 33%
110 | CATTACCCCAACTAAA (sugars k3 d10 k3, PS) | 15%
111 | CCAAAAGCTCTATACT (sugars k3 d10 k3, PS) | 12%
112 | CCAAATCGCACTGGCT (sugars k3 d10 k3, PS) | 16%
113 | CCAAATTAATGCACTG (sugars k3 d10 k3, PS) | 13%
114 | CCAACCCCCAGTTCAA (sugars k3 d10 k3, PS) | 24%
